Laboratory results taken from patent US12545890B2, “Compositions and methods for derivation of trophoblast stem cells” (North Carolina State University, priority 2019, dated 2026).

Tests used:
H1 and H9 hESCs [1] = assay: 6-day differentiation of hESCs to CTB-like cells in chemically defined medium, marker expression by qPCR and immunofluorescence; details: for immunofluorescence expression of trophoblast/CTB markers in CTB-like cells: day 6, S1P or replacing agonist with BMP4 and SB431542 in E7 medium
H1 and H9 hESCs [2] = assay: differentiation of day-6 CTB-like cells to STB, analysed at day 14; details: for formation of multinucleate STB expressing STB markers: agonist present during initial 6-day treatment, 14-day treatment; for formation of large multinucleated STB, compared among S1PR agonists: compared to the S1PR1 agonist
From the text: (§1) Differentiation of hPSCs (6 days protocol). […] The medium was replaced every day.

H1 and H9 hESCs [3] = assay: differentiation of day-6 CTB-like cells to EVTs, analysed at day 12; details: for formation of EVTs, expression of EVT markers HLA-G and VE-Cadherin: agonist present during initial 6-day treatment, 12-day treatment; for formation of mesenchymal EVTs, compared among S1PR agonists: relative to the S1PR2 agonist
From the text: as §1

H9 and H1 hESCs = assay: 3-day differentiation of hESCs, quantitative image analysis of nuclear CDX2; assay type: cell-based, human; details: day 3; BMP4 and SB431542 in E7 medium with S1PR3 agonist
Protocol: Differentiation of hPSCs to hPSC-TS^CDX2 and hPSC-TS cells. […] The medium was replaced every day. […] Alternatively, hPSCs after 2 or 3 days of differentiation were directly passaged into TSCM.
Immunofluorescence analysis.
Confocal image analysis. Image analysis was conducted using an image processing algorithm created in MATLAB. First, the DAPI stain was isolated, binarized, and processed to accurately represent the number of cells in each image. The primary-antibody stain of interest was isolated and processed in the same manner. Only primary-antibody pixels that overlap DAPI pixels were considered for analysis, and the average intensities of those pixels were measured and correlated to the nearest nuclei. This was performed for one control image and multiple experimental images. Each cell in the experimental images was considered positively stained if the average intensity of that cell was greater than the average intensity of all of the cells in the control image. Statistical analysis was done using a two-tailed t-test evaluating percent positive cells from different treatment periods.

[4] = day 6, qualitative immunofluorescence

CCCCCCCCCCCCC/C=C/[C@@H](O)[C@@H](N)COP(=O)(O)O [S1P, sphingosine-1 phosphate]
gene expression of CTB markers CDX2 and ELF5 (H1 and H9 hESCs [1]; H1 and H9 hESCs, 6 days in E7 medium supplemented with S1P, with BMP4 and SB431542, compared to hESCs): upregulation of the CTB markers CDX2 and ELF5 was observed | gene expression of neural and mesodermal markers (H1 and H9 hESCs [1]; H1 and H9 hESCs, after 6 days in E7 medium supplemented with S1P, with BMP4 and SB431542): no significant changes in markers associated with neural or mesodermal differentiation | gene expression after 6 days of differentiation upon removal of S1P (H1 and H9 hESCs [1]; H9 and H1 hESCs, compared to 6-day treatment in the presence of S1P): downregulation of the CTB marker CDX2 and upregulation of transcripts of neural and mesoderm markers | immunofluorescence expression of trophoblast/CTB markers in CTB-like cells (H1 and H9 hESCs [1]): confirmed expression of the pan-trophoblast marker KRT7, and CTB markers P63 and GATA3 | differentiation to STB in the absence of S1P (H1 and H9 hESCs [2]; S1P removed during initial 6-day treatment, syncytin and KRT7 staining): did not occur | formation of multinucleate STB expressing STB markers (H1 and H9 hESCs [2]): formation of KRT7^+ multinucleate cells expressing the STB markers hCG and syncytin | formation of EVTs upon removal of S1P (H1 and H9 hESCs [3]; S1P removed during hESC differentiation to CTB-like cells, identical differentiation conditions): abolished formation of EVTs | formation of EVTs, expression of EVT markers HLA-G and VE-Cadherin (H1 and H9 hESCs [3]): expression of KRT7 and the EVT markers VE-Cadherin and HLA-G

O=C(c1cc(C2CC2)on1)N(C1CCCCC1)C1CCCCC1 [CYM5541]
intensity of CDX2 and P63 expression, compared among S1PR agonists (H1 and H9 hESCs [1]; [4]): higher | intensity of CDX2 and P63 expression, compared among S1PR agonists (H1 and H9 hESCs [1]; day 6, qualitative immunofluorescence, listed as S1PR3 agonist): high CDX2 expression | immunofluorescence expression of trophoblast/CTB markers in CTB-like cells (H1 and H9 hESCs [1]): Expression of CDX2, GATA3, P63, and TEAD4 was observed | formation of multinucleate STB expressing STB markers (H1 and H9 hESCs [2]): formation of multinucleate STB expressing KRT7 and hCG | formation of large multinucleated STB, compared among S1PR agonists (H1 and H9 hESCs [2]): more pronounced | formation of EVTs, expression of EVT markers HLA-G and VE-Cadherin (H1 and H9 hESCs [3]): expression of the EVT markers HLA-G and VE-Cadherin | formation of mesenchymal EVTs, compared among S1PR agonists (H1 and H9 hESCs [3]): enhanced formation of mesenchymal EVTs | fraction of CDX2+ cells (H9 and H1 hESCs): nearly all cells are CDX2^+

Cc1cc(C(=O)Cn2cc(C#N)ccc2=O)c(C)n1Cc1ccccc1 [CYM5520]
intensity of CDX2 and P63 expression, compared among S1PR agonists (H1 and H9 hESCs [1]; [4]): lower expression of CDX2, strong cytoplasmic expression of P63, and high heterogeneity in staining | immunofluorescence expression of trophoblast/CTB markers in CTB-like cells (H1 and H9 hESCs [1]): Expression of CDX2, GATA3, P63, and TEAD4 was observed | formation of multinucleate STB expressing STB markers (H1 and H9 hESCs [2]): formation of multinucleate STB expressing KRT7 and hCG | formation of large multinucleated STB, compared among S1PR agonists (H1 and H9 hESCs [2]): more pronounced | formation of EVTs, expression of EVT markers HLA-G and VE-Cadherin (H1 and H9 hESCs [3]): expression of the EVT markers HLA-G and VE-Cadherin

CCOc1ccc(-c2nc(-c3cccc4c3CCC4NCCO)no2)cc1OCC.Cl (stereo not drawn) [CYM5442 hydrochloride]
intensity of CDX2 and P63 expression, compared among S1PR agonists (H1 and H9 hESCs [1]; [4]): higher | nuclear P63 expression, compared among S1PR agonists (H1 and H9 hESCs [1]; [4]): strongest | immunofluorescence expression of trophoblast/CTB markers in CTB-like cells (H1 and H9 hESCs [1]): Expression of CDX2, GATA3, P63, and TEAD4 was observed | formation of multinucleate STB expressing STB markers (H1 and H9 hESCs [2]): formation of multinucleate STB expressing KRT7 and hCG | formation of EVTs, expression of EVT markers HLA-G and VE-Cadherin (H1 and H9 hESCs [3]): expression of the EVT markers HLA-G and VE-Cadherin | formation of mesenchymal EVTs, compared among S1PR agonists (H1 and H9 hESCs [3]): enhanced formation of mesenchymal EVTs

CCCCCCCCCCCCCCC[C@@H](O)[C@@H](N)COP(=O)(O)O [dhS1P, D-erythro-dihydrospingosine-1-phosphate]
immunofluorescence expression of trophoblast/CTB markers in CTB-like cells (H1 and H9 hESCs [1]): CTB-like cells showed expression of CDX2, GATA3, P63, and TEAD4 | formation of multinucleate STB expressing STB markers (H1 and H9 hESCs [2]): STB expressing KRT7 and hCG | formation of EVTs, expression of EVT markers HLA-G and VE-Cadherin (H1 and H9 hESCs [3]): EVT expressing HLA-G and VE-Cadherin were obtained
